Measured values as given in patent US7365069B2, “Pyrimidone derivatives” (Bexel Pharmaceuticals Inc., priority 2002, dated 2008).

What was measured:
Male Wistar rats [1] = assay: Rat carrageenan paw edema test; assay type: in vivo; conditions: 10 mg/kg body weight, oral, paw volume 3 hours after carrageenan, read-out: Rat Paw Edema model % inhibition
Method: Rat Carrageenan Paw Edema Test
(§1) The carrageenan paw edema test is performed as described by Winter et al (Proc. Soc. Exp. Biol. Med, 111, 544, 1962). Male Wistar rats are selected and the body weights are equivalent within each group. The rats are fasted for eighteen hours with free access to water. The rats are dosed orally with the test compound suspended in vehicle containing 0.5% methylcellulose. The control rats are administered the vehicle alone. After an hour, the rats are injected with 0.1 ml of 1% Carrageenan solution in 0.9% saline into the sub-plantar surface of the right hind paw. Paw volume is measured using water plethysmograph before and after 3 hours of carrageenan injection. The average of foot swelling in drug treated animals is compared with that of control animals. Anti-inflammatory activity is expressed as the percentage inhibition of edema compared with control group [Arzneim-Forsch/Drug Res., 43(I), 1, 44-50,1993; Ottemess and Bliven, Laboratory Models for Testing NSAIDs, In Non-Steroidal Anti-Inflammatory Drugs, (J. Lombardino, ed. 1985)]. In order to evaluate their role on the ulcer formation, the animals are sacrificed and the stomach is taken out and flushed with 1% formalin. The stomach is opened along the greater curvature. The haemorrhagic puncta and sulci are identified microscopically and images are captured. The stomach lesions are calculated.

TNF-α = TNF-α production in LPS-stimulated human whole blood; assay type: cell-based; conditions: LPS 4 h
Outline: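 Human whole blood pre-incubated with compound 15 min at 37° C., then stimulated with LPS (Salmonella abortus equi, 1 μg/ml) for 4 h at 37° C. in 5% CO2. TNF-α quantified by ELISA.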

Male Wistar rats [2] = assay: Gastroulcerogenic potential (stomach lesions after the paw edema test); assay type: in vivo; conditions: 10 mg/kg body weight, oral, rat
Method: as §1

IL-6 = IL-6 production in LPS-stimulated human whole blood; assay type: cell-based; conditions: LPS 4 h
Method: This assay determines the effect of test compounds on the production of IL-6 from human whole blood. Compounds are tested for their ability to downregulate the production of IL-6 in activated whole blood. The test compounds are pre-incubated for 15 minutes at 37° C. and then stimulated with Lipopolysaccharide (Salmonella abortus equi, 1 μg/ml) for 4 h at 37° C. in 5% CO2. The levels of Interleukin-6 are estimated using Enzyme linked Immunosorbent assay performed in a 96 well format as per the procedure of the manufacturer (Cayman Chemical, Ann Arbor, USA).

COX-2 = biological target: T1, COX-2 (Homo sapiens, UniProt P35354); assay: Human whole blood assay, COX-2 inhibition (PGE2 ELISA after LPS); assay type: cell-based; conditions: LPS 24 h
T1 construct: incubation of human blood with lipopolysaccharide (LPS), which induces COX-2 production in the blood; endogenous in cells; host or cells: fresh human whole blood from volunteers, treated with aspirin and then LPS
T1 sequence (P35354 18-604): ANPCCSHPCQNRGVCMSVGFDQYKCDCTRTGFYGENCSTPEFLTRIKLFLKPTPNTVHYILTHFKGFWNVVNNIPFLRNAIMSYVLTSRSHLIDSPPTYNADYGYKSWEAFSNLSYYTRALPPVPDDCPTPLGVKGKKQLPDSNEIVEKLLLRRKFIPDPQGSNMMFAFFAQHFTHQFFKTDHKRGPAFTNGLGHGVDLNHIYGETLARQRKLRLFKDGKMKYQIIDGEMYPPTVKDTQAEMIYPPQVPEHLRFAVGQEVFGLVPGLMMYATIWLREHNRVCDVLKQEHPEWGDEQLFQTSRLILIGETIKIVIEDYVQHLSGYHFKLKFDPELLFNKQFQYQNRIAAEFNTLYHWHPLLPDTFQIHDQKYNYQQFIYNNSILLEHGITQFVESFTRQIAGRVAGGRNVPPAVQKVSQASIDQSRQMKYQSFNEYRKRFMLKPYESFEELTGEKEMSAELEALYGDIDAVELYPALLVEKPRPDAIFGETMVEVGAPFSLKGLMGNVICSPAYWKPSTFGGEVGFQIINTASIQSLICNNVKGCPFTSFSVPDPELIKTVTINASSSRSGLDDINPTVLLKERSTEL
Outline: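 Fresh EDTA blood from healthy male donors was given aspirin (10 μg/ml) to inactivate COX-1. LPS (10 μg/ml) was then added together with test agent or vehicle, and the blood was incubated 24 h at 37° C. Plasma PGE2 was measured by ELISA.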

NCI-H460 = assay: DTP human tumor cell line one-dose prescreen, NCI-H460; assay type: cell-based; conditions: 48 hours, Alamar Blue, test/control, read-out: Percentage growth Lung NCI-H460
MCF-7 = assay: DTP human tumor cell line one-dose prescreen, MCF-7; assay type: cell-based; conditions: MCF7, 48 hours, Alamar Blue, test/control, read-out: Percentage growth Breast MCF-7
SF-268 = assay: DTP human tumor cell line one-dose prescreen, SF-268; assay type: cell-based; conditions: 48 hours, Alamar Blue, test/control, read-out: Percentage growth CNS SF-268

Compound	melting point	inhibition in vivo at 10 mg/kg (Male Wistar rats [1])	Gastroulcerogenic potential (% incidence of ulceration) (Male Wistar rats [2])	inhibition at 0.25 µM (IL-6)	activity at 50 µM (NCI-H460)	activity at 50 µM (MCF-7)	activity at 50 µM (SF-268)	also measured
CSc1ccc(-c2nc(SC)c(C#N)c(=O)n2-c2ccc(C)c(C)c2)cc1 [Example 10, 5-cyano-1-(3,4-dimethylphenyl)-4-(methylthio)-2-[4-(methylthio)phenyl]-6-oxo-1,6-dihydropyrimidine]	234 to 236 °C	68.6%	0%	–	–	–	–	inhibition at 10 µM (TNF-α; 10 μM): 26.4%; inhibition at 1 µM (IL-6): 48.6%; inhibition at 0.1 µM (COX-2; 0.1 μM): 62.8%
CSc1ccc(-c2nc(SC)c(C#N)c(=O)n2-c2ccc(F)cc2)cc1 [Example 5, 5-cyano-2-[(4-methylthio)phenyl]-4-(methylthio)-1-[4-fluorophenyl]-6-oxo-1,6-dihydropyrimidine]	219 to 221 °C	13.3%	37.5%	51%	–	–	–	inhibition at 1 µM (COX-2): 40.5%
CSc1ccc(-c2nc(SC)c(C#N)c(=O)n2-c2ccc(C(C)(C)C)cc2)cc1 [Example 22, 1-(4-tert-butylphenyl)-5-cyano-4-(methylthio)-2-[4-(methylthio)phenyl]-6-oxo-1,6-dihydropyrimidine]	233 to 236 °C	–	–	–	80%	83%	–	inhibition at 1 µM (TNF-α): 62.7%; inhibition at 1 µM (IL-6): 66.3%
CSc1ccc(-n2c(-c3ccc(C(F)(F)F)cc3)nc(SC)c(C#N)c2=O)cc1 [Example 4]	228 to 229 °C	38.5%	25%	48.4%	–	–	–	inhibition at 10 µM (COX-2): 50.1%
CSc1ccc(-n2c(-c3ccc(Cl)cc3)nc(SC)c(C#N)c2=O)cc1 [Example 1, 5-cyano-2-(4-chlorophenyl)-4-(methylthio)-1-[4-(methylthio)phenyl]-6-oxo-1,6-dihydropyrimidine]	206 to 207 °C	29%	75%	–	–	–	–	inhibition at 0.1 µM (TNF-α; 0.1 μM): 56.9%; inhibition at 0.1 µM (IL-6; 0.1 μM): 52.8%; inhibition at 10 µM (COX-2): 13%
CSc1ccc(-c2nc(SC)c(C#N)c(=O)n2-c2ccc(C)cc2)cc1 [Example 6, 5-cyano-1-(4-methylphenyl)-4-(methylthio)-2-[4-(methylthio)phenyl]-6-oxo-1,6-dihydropyrimidine]	196 to 198 °C	40.2%	25%	41.4%	–	–	–	inhibition at 1 µM (TNF-α): 28.8%; inhibition at 1 µM (COX-2): 55.7%

More lines, main results first:

melting point	Compound	inhibition in vivo at 10 mg/kg (Male Wistar rats [1])	Gastroulcerogenic potential (% incidence of ulceration) (Male Wistar rats [2])	inhibition at 0.25 µM (IL-6)	activity at 50 µM (NCI-H460)	activity at 50 µM (MCF-7)	activity at 50 µM (SF-268)	also measured
255 to 258 °C	CS(=O)(=O)c1ccc(-n2c(-c3ccc(F)cc3)nc(N3CCOCC3)c(C(N)=O)c2=O)cc1 [Example 50, 5-carboxamido-2-(4-fluorophenyl)-1-[4-(methylsulfonyl)phenyl]-4-morpholin-4-yl-6-oxo-1,6-dihydropyrimidine]	–	–	–	94%	92%	97%	–
> 300 °C	CNc1nc(-c2ccc(F)cc2)n(-c2ccc(S(C)(=O)=O)cc2)c(=O)c1C(N)=O [Example 49, 5-carboxamido-2-(4-fluorophenyl)-4-(methylamino)-1-[4-(methylsulfonyl)phenyl]-6-oxo-1,6-dihydropyrimidine]	–	–	–	72%	79%	88%	–
219 to 222 °C	CNc1nc(-c2ccc(F)cc2)n(-c2ccc(SC)cc2)c(=O)c1C#N [Example 56, 5-cyano-2-(4-fluorophenyl)-4-(methylamino)-1-[4-(methylthio)phenyl]-6-oxo-1,6-dihydropyrimidine]	–	–	–	54%	63%	87%	–
